Paper PMC10269165 (Antimicrobial Agents and Chemotherapy, 2023)
Where two headings read alike, the source gives them in different places.

Key:
[1] = system: catechol O-methyltransferase (COMT); parameters: method as in PMID 15755652, doi:10.1007/s40495-018-0157-y; details: cited from earlier work
[2] = system: catechol O-methyltransferase (COMT); parameters: method as in PMID 15755652, doi:10.1007/s40495-018-0157-y; details: cited from earlier work; remark: listed apart in the source
[3] = system: susceptible isolate of H. contortus, exsheathed L3 larvae; assay: Larval motility assay (LMA), Worminator; format: cell-based, Haemonchus contortus; details: for anthelmintic activity in LMA: first round, up to 125 μM, any time point
Source text: The H. contortus isolates used were TxPh-2011-S (Texas A&M University, USA) and UGA MDR 2020 (University of Georgia Athens, USA). TxPh-2011-S (Texas A&M University, USA) was originally isolated from Pronghorn antelope in West Texas in 2011 and is fully drug susceptible, phenotypically determined by the DrenchRite larval development assay (LDA; Microbial Screening Technologies, Kemps Creek, Australia). To establish this as a laboratory isolate, it was initially passaged in goats at Texas A&M University and then at The University of Georgia using both goats and sheep, and it is currently maintained in lambs at Louisiana State University. A nemabiome assay ([69]) was conducted at the University of Calgary to confirm that the isolate is 100% H. contortus. The UGA MDR 2020 (University of Georgia Athens, USA) isolate is resistant to ivermectin, benzimidazoles, levamisole, and moxidectin, as determined by the DrenchRite LDA. To establish this as a laboratory isolate, feces collected from a sheep farm in Georgia with known history of multiple anthelmintic resistance were cultured. Two donor goats were infected with the larvae recovered, which were morphologically ([70]) identified as 89% H. contortus. A fecal egg count reduction test (FECRT) was then performed in the infected goats. First, a combination treatment with albendazole at 15 mg/kg and ivermectin at 0.4 mg/kg was performed, followed by a treatment with levamisole at 12 mg/kg. Later, and to confirm resistance to moxidectin, another treatment was administered using a dose of 0.4 mg/kg of moxidectin. Posttreatment feces were recovered, coprocultures were established, and L3 larvae were identified as 100% H. contortus. Resistance to all drugs was subsequently confirmed using a DrenchRite assay.
For LMAs, the first phase testing using compounds NSC133100 and NSC177383 was done using the Worminator system in parallel with the LDA. Initial stock solutions of 12.5 mM were prepared for each compound using 100% DMSO as a solvent. Initial stock solutions (25 μL) were then diluted in 475 μL of culture media to yield working stock solutions of 625.00, 156.30, 39.10, 9.80, 2.40, 0.60, 0.20, 0.04, and 0.00 μM in 5% DMSO for each drug. In plate, 200 μL of working stock solutions were then diluted in 800 μL of culture media, yielding concentrations of 125.00, 31.25, 7.81, 1.95, 0.49, 0.12, and 0.00 μM in 1% DMSO. For the second phase of testing, compounds showing anthelmintic activity with the LDA were tested in a second round at higher concentrations than in the first phase of testing. Initial stocks of 50 mM were prepared for compounds NSC133100, NSC177383, NSC145612, and NSC56410 using 100% DMSO as a solvent. Initial stock solutions (25-μL portions) were then diluted in 475 μL of culture media consisting of 65% Lauria-Bertani (LB) (Thermo Fisher Scientific, Branchburg, NJ), 25% NCTC (Sigma-Aldrich), 10% fetal bovine serum (Atlanta Biologicals, Flowery Branch, GA), Pen/Strep (Sigma-Aldrich) at a final concentration of […], and amphotericin B (Sigma-Aldrich) at a final concentration of […]. The working stock solutions yielded concentrations of 2,500.00, 625.00, 156.30, 39.10, 9.80, 2.40, and 0.00 μM in 5% DMSO for each compound. In each well in the plate, 200 μL of working stock solutions were then diluted in 800 μL of culture media, yielding final concentrations of 500.00, 125.00, 31.30, 7.81, 1.95, 0.49, and 0.00 μM in 1% DMSO.
For the motility assays, 24-well plates with inserts were used (Costar, catalog no. 3379; Corning, Inc., Corning, NY). Portions (640 μL) of culture media were added to each well, and approximately 50 exsheathed larvae contained in 160 μL of culture media in each insert. Once pretreatment readings were taken, 160 μL of the drug solution was added to the well, and another 40 μL was added to the insert, reaching the final concentrations described in the protocol above. All concentrations were tested in triplicate. […]

O=c1c(O)cccc2cc(O)c(O)c(O)c12 [NSC35676, purpurogallin]
inhibition of COMT catalytic activity [1]: inhibit the catalytic activity | inhibition of COMT catalytic activity [2]: inhibit the catalytic activity

CO[C@H]1/C=C/O[C@@]2(C)Oc3c(C)c(O)c4c(O)c(cc(O)c4c3C2=O)NC(=O)/C(C)=C\C=C\[C@H](C)[C@H](O)[C@@H](C)[C@@H](O)[C@@H](C)[C@H](OC(C)=O)[C@@H]1C [NSC133100]
Percent inhibition of larval motility ([3]; 0.12 µM, 1 hour): -7.4% | Percent inhibition of larval motility ([3]; 0.12 µM, 4 hours): 14.9% | Percent inhibition of larval motility ([3]; 0.12 µM, 24 hours): 22.9% | Percent inhibition of larval motility ([3]; 0.12 µM, 48 hours): 8.7% | Percent inhibition of larval motility ([3]; 0.12 µM, 72 hours): 26.1% | Percent inhibition of larval motility ([3]; 0.12 µM, 96 hours): 7.4% | Percent inhibition of larval motility ([3]; 0.12 µM, Initial): -93.9% | Percent inhibition of larval motility ([3]; 0.49 µM, 1 hour): -29.1% | Percent inhibition of larval motility ([3]; 0.49 µM, 4 hours): 4.3% | Percent inhibition of larval motility ([3]; 0.49 µM, 24 hours): 8.0% | Percent inhibition of larval motility ([3]; 0.49 µM, 48 hours): -9.5% | Percent inhibition of larval motility ([3]; 0.49 µM, 72 hours): -14.9% | Percent inhibition of larval motility ([3]; 0.49 µM, 96 hours): -9.0% | Percent inhibition of larval motility ([3]; 0.49 µM, Initial): -118.5% | Percent inhibition of larval motility ([3]; 1.95 µM, 1 hour): -57.6% | Percent inhibition of larval motility ([3]; 1.95 µM, 4 hours): -16.4% | Percent inhibition of larval motility ([3]; 1.95 µM, 24 hours): -8.4% | Percent inhibition of larval motility ([3]; 1.95 µM, 48 hours): -37.5% | Percent inhibition of larval motility ([3]; 1.95 µM, 72 hours): -49.0% | Percent inhibition of larval motility ([3]; 1.95 µM, 96 hours): -50.7% | Percent inhibition of larval motility ([3]; 1.95 µM, Initial): -159.9% | Percent inhibition of larval motility ([3]; 7.81 µM, 1 hour): 27.5% | Percent inhibition of larval motility ([3]; 7.81 µM, 4 hours): 9.1% | Percent inhibition of larval motility ([3]; 7.81 µM, 24 hours): 25.3% | Percent inhibition of larval motility ([3]; 7.81 µM, 48 hours): 35.3% | Percent inhibition of larval motility ([3]; 7.81 µM, 72 hours): 32.1% | Percent inhibition of larval motility ([3]; 7.81 µM, 96 hours): 38.0% | Percent inhibition of larval motility ([3]; 7.81 µM, Initial): -74.0% | Percent inhibition of larval motility ([3]; 31.25 µM, 1 hour): 10.6% | Percent inhibition of larval motility ([3]; 31.25 µM, 4 hours): 7.1% | Percent inhibition of larval motility ([3]; 31.25 µM, 24 hours): 9.0% | Percent inhibition of larval motility ([3]; 31.25 µM, 48 hours): 35.2% | Percent inhibition of larval motility ([3]; 31.25 µM, 72 hours): 19.9% | Percent inhibition of larval motility ([3]; 31.25 µM, 96 hours): 28.7% | Percent inhibition of larval motility ([3]; 31.25 µM, Initial): -64.8% | Percent inhibition of larval motility ([3]; 125 µM, 1 hour): 4.3% | Percent inhibition of larval motility ([3]; 125 µM, 4 hours): -12.0% | Percent inhibition of larval motility ([3]; 125 µM, 24 hours): 3.2% | Percent inhibition of larval motility ([3]; 125 µM, 48 hours): 23.2% | Percent inhibition of larval motility ([3]; 125 µM, 72 hours): 3.1% | Percent inhibition of larval motility ([3]; 125 µM, 96 hours): 19.2% | Percent inhibition of larval motility ([3]; 125 µM, Initial): -8.9% | anthelmintic activity in LMA [3]: no anthelmintic activity

CO[C@@H]1/C=C/O[C@@]2(C)Oc3c(C)c(O)c4c(c3C2=O)C(=N[C@@H]2CC[C@@H](O)O[C@H]2C)C=C(NC(=O)/C(C)=C\C(=O)[C@@H]2C[C@@H]2[C@H](O)[C@@H](C)[C@@H](O)[C@@H](C)[C@H](OC(C)=O)[C@@H]1C)C4=O [NSC177383]
Percent inhibition of larval motility ([3]; 0.12 µM, 1 hour): 29.41% | Percent inhibition of larval motility ([3]; 0.12 µM, 4 hours): 4.95% | Percent inhibition of larval motility ([3]; 0.12 µM, 24 hours): 28.20% | Percent inhibition of larval motility ([3]; 0.12 µM, 48 hours): 2.41% | Percent inhibition of larval motility ([3]; 0.12 µM, 72 hours): 4.89% | Percent inhibition of larval motility ([3]; 0.12 µM, 96 hours): -16.32% | Percent inhibition of larval motility ([3]; 0.12 µM, Initial): -1.62% | Percent inhibition of larval motility ([3]; 0.49 µM, 1 hour): 25.94% | Percent inhibition of larval motility ([3]; 0.49 µM, 4 hours): 18.27% | Percent inhibition of larval motility ([3]; 0.49 µM, 24 hours): 23.09% | Percent inhibition of larval motility ([3]; 0.49 µM, 48 hours): 12.98% | Percent inhibition of larval motility ([3]; 0.49 µM, 72 hours): -5.94% | Percent inhibition of larval motility ([3]; 0.49 µM, 96 hours): -72.91% | Percent inhibition of larval motility ([3]; 0.49 µM, Initial): -11.69% | Percent inhibition of larval motility ([3]; 1.95 µM, 1 hour): 30.56% | Percent inhibition of larval motility ([3]; 1.95 µM, 4 hours): 33.37% | Percent inhibition of larval motility ([3]; 1.95 µM, 24 hours): 18.80% | Percent inhibition of larval motility ([3]; 1.95 µM, 48 hours): 14.16% | Percent inhibition of larval motility ([3]; 1.95 µM, 72 hours): -3.70% | Percent inhibition of larval motility ([3]; 1.95 µM, 96 hours): -23.78% | Percent inhibition of larval motility ([3]; 1.95 µM, Initial): 21.82% | Percent inhibition of larval motility ([3]; 7.81 µM, 1 hour): 26.94% | Percent inhibition of larval motility ([3]; 7.81 µM, 4 hours): 26.72% | Percent inhibition of larval motility ([3]; 7.81 µM, 24 hours): 22.63% | Percent inhibition of larval motility ([3]; 7.81 µM, 48 hours): 34.44% | Percent inhibition of larval motility ([3]; 7.81 µM, 72 hours): 14.00% | Percent inhibition of larval motility ([3]; 7.81 µM, 96 hours): -53.76% | Percent inhibition of larval motility ([3]; 7.81 µM, Initial): 22.03% | Percent inhibition of larval motility ([3]; 31.25 µM, 1 hour): 14.47% | Percent inhibition of larval motility ([3]; 31.25 µM, 4 hours): 38.95% | Percent inhibition of larval motility ([3]; 31.25 µM, 24 hours): 18.83% | Percent inhibition of larval motility ([3]; 31.25 µM, 48 hours): 26.89% | Percent inhibition of larval motility ([3]; 31.25 µM, 72 hours): 16.58% | Percent inhibition of larval motility ([3]; 31.25 µM, 96 hours): -23.43% | Percent inhibition of larval motility ([3]; 31.25 µM, Initial): 28.34% | Percent inhibition of larval motility ([3]; 125 µM, 1 hour): 42.55% | Percent inhibition of larval motility ([3]; 125 µM, 4 hours): 10.81% | Percent inhibition of larval motility ([3]; 125 µM, 24 hours): 16.94% | Percent inhibition of larval motility ([3]; 125 µM, 48 hours): 42.97% | Percent inhibition of larval motility ([3]; 125 µM, 72 hours): 27.79% | Percent inhibition of larval motility ([3]; 125 µM, 96 hours): 41.45% | Percent inhibition of larval motility ([3]; 125 µM, Initial): 22.02% | anthelmintic activity in LMA [3]: no anthelmintic activity
